31 compounds from US20230203025A1, “ENHANCERS OF PARTICULATE GUANYLYL CYCLASE RECEPTOR A” (Mayo Foundation for Medical Education and Research, priority 2020, published 2023) can be followed below.

The target in series [1] is T1, pGC-A (Homo sapiens, UniProt P16066).
T1 construct: expressed in transfected cells; host or cells: HEK293
T1 sequence (P16066 33-1061): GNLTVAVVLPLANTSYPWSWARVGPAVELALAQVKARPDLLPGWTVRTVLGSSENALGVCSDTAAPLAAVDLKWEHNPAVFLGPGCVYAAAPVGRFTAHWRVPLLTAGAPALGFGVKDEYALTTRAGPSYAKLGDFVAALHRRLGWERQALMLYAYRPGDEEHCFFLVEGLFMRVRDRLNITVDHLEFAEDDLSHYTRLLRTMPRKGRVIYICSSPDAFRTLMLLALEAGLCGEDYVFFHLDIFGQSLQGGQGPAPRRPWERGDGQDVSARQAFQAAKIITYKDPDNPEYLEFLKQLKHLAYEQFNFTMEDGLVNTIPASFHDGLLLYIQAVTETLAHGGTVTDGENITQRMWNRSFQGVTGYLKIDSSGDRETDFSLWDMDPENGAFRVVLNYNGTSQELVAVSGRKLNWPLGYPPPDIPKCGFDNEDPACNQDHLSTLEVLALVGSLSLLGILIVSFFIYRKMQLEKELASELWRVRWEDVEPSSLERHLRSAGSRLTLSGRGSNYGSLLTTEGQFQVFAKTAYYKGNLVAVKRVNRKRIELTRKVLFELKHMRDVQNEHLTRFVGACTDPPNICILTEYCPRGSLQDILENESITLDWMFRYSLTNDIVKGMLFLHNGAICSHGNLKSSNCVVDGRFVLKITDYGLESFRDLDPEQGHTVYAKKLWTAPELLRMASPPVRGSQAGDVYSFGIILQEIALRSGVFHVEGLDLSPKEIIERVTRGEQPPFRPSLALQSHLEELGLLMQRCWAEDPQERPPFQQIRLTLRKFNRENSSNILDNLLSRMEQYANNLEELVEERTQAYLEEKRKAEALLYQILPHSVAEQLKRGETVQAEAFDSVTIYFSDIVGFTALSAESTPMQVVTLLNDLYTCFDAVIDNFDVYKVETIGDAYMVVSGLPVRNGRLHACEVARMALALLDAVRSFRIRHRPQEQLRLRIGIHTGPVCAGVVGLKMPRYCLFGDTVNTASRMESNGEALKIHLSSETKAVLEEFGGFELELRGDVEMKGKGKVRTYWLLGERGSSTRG
T1 sequence (P01160 124-151 partner limits assumed): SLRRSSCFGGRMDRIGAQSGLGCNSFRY
The experiment in a line: cGMP production by HTRF in HEK293 cells overexpressing pGC-A. Format: cell-based. The note with it: for Emax: HEK293, cGMP normalized to maximal amount produced by an EC80 concentration of ANP, read-out: Max efficacy; for EC50: HEK293 pGC-A cells, cGMP HTRF, in the presence of EC20 concentration of ANP. The protocol: Assay details: 20 nL of 10 μM test compound in DMSO was added to columns 5-48 of 1536 well white high base screening plates (Corning, New York, N.Y.) cells using 550 ECHO acoustic dispenser (Labcyte, San Jose, Calif.). […] HEK293 cells overexpressing GC-A were resuspended in assay media (OptimMem media containing 2% Heat-inactivated Fetal bovine serum and L-glutamine) at a density of 6×10^5 cells/mL and 2 μL were plated in screening plates (1200 cells/well) in suspension using a Bioraptr 2. Plates were spun at 1000 rpm for 1 min and incubated for 30 min at room temperature. 1.5 μL d2-labled cGMP followed by 1.5 uL Eu^3+ cryptate-labeled anti-cGMP cGMP detection kit (CiBio; #62GM2PEC) prepared according to manufacturer's protocol were added to all wells using a Bioraptr 2 and TR-FRET signal was detected on an EnVision detector (PerkinElmer).

A short description of series [2]: in vitro solubility. Format: physicochemical. The note with it: FIG. 3.
Series [3] is described as follows: rodent microsomal stability. Conditions: FIG. 3. Format: in vitro ADME.
Series [4] deals with primary human cardiomyocytes (HCMs). The series is described as follows: inhibition of TGF-beta 1 induced human cardiomyocyte hypertrophy. Conditions: TGF-β1 5 ng/mL. Format: cell-based. The procedure: Methods (Inhibition of Human Cardiac Hypertrophy In Vitro): primary human cardiomyocytes (HCMs) were grown in growth media to 50% confluence and then were subjected to serum starvation for 24 hrs. After that, 5 ng/mL of the cytokine TGFβ-1 (R&D Systems) was added to the media for 48 hrs to induce HCM hypertrophy. […] Normal cell buffer served as a vehicle only control, where TGFP-1 alone served as the positive control. Analysis for cell surface area (μm^2) was performed using the ImageJ software at the end of the study.
Results: to further support the cGMP generation in human primary cells leads to favorable biological GC-A mediated, the anti-hypertrophic effects were assessed of Compound 19 on live HCMs stressed with TGF-β1 (5 ng/mL), using a state-of-the-art live cell imaging platform (IncuCyte System).

Where “and” joins values, the source holds several entries; their conditions need not be identical. Equal entries are not always repeated. Some results are limits rather than exact numbers.

Turning to `O=C(Nc1nc2c(F)cc(F)cc2s1)C1CCCN(C(=O)c2ccccc2)C1` (centres unmarked) [Compound 12], in series [1], the Emax was 64% and the EC50 turned out to be 3360 nM.

For `O=C(Nc1nc2c(F)cc(F)cc2s1)C1CCCNC1` (centres unmarked) [Compound 18], in series [1], the Emax stood at 82% and the EC50 came out at 1050 nM.

As to `CC(C)(C)C(=O)N1CCCC(C(=O)Nc2nc3c(F)cc(F)cc3s2)C1` (centres unmarked) [Compound 8], in series [1], the Emax amounted to 73% and the EC50 was 5070 nM.

As to `CN1CCCC(C(=O)Nc2nc3c(F)cc(F)cc3s2)C1` (centres unmarked) [Compound 17], in series [1], the Emax turned out to be 81% and the EC50 was 1230 nM.

For the compound `O=C(Nc1nc2c(F)cc(F)cc2s1)C1CCCN(Cc2ccccc2)C1` (centres unmarked) [Compound 16], in series [1], the Emax is 66% and the EC50 came out at 2410 nM.

As for `CC(=O)N1CCCC(C(=O)Nc2nc3c(F)cc(F)cc3s2)C1` (centres unmarked) [Compound 11], in series [1], the Emax stood at 79% and the EC50 came out at 1650 nM.

For `CC(C)(C)CC(=O)N1CCCC(C(=O)Nc2nc3c(F)cc(F)cc3s2)C1` (centres unmarked) [Compound 13], in series [1], the Emax is 74% and the concentration giving a half-maximal response (EC50) was found to be 3570 nM.

As to `O=C(Nc1nc2c(F)cc(F)cc2s1)C1CCN(C(=O)C2CCC2)C1` (centres unmarked) [Compound 23], in series [1], the Emax stood at 82% and the EC50 came to 6060 nM.

Take `O=C(Nc1nc2c(F)cc(F)cc2s1)C1CCN(C(=O)c2ccccc2)C1` (centres unmarked) [Compound 25]: in series [1], the Emax came to 84% and the EC50 worked out at 6860 nM.

As to `CC(C)(C)C(=O)N1CCC(C(=O)Nc2nc3c(F)cc(F)cc3s2)CC1` [Compound 1], in series [1], the Emax turned out to be 83%; the EC50 was 2180 nM and 1380 nM and 1570 nM. Moreover, the “potency compared to compound A” value in series [1] (HEK pGC-A cGMP, FIG. 2-3) is “improved potency”. The Max efficacy in series [1] (cGMP normalized to maximal amount produced by an EC80 concentration of ANP) was 76% and 77%. Besides, in series [2], the “solubility compared to compound A” value was “improved”. Moreover, the “rodent microsomal stability compared to compound A” value in series [3] is given as “improved”.

`O=C(Nc1nc2c(F)cc(F)cc2s1)C1CCCN(C(=O)Cc2ccccc2)C1` (centres unmarked) [Compound 14]: in series [1], the Emax turned out to be 71% and the EC50 was found to be 2020 nM.

With `CS(=O)(=O)N1CCC(C(=O)Nc2nc3c(F)cc(F)cc3s2)C1` (centres unmarked) [Compound 28], in series [1], the Emax stood at 66% and the EC50 was determined as 990 nM.

Take `CC(C)(C)CC(=O)N1CCC(C(=O)Nc2nc3c(F)cc(F)cc3s2)C1` (centres unmarked) [Compound 26]: in series [1], the Emax amounted to 81% and the EC50 was found to be 3230 nM.

Turning to `CC[C@H](C)[C@@H]1NC(=O)[C@H](CCCNC(=N)N)NC(=O)[C@H](CC(=O)O)NC(=O)[C@H](CCSC)NC(=O)[C@H](CCCNC(=N)N)NC(=O)CNC(=O)CNC(=O)[C@H](Cc2ccccc2)NC(=O)[C@@H](NC(=O)[C@H](CO)NC(=O)[C@H](CO)NC(=O)[C@H](CCCNC(=N)N)NC(=O)[C@H](CCCNC(=N)N)NC(=O)[C@H](CC(C)C)NC(=O)[C@@H](N)CO)CSSC[C@@H](C(=O)N[C@@H](CC(N)=O)C(=O)N[C@@H](CO)C(=O)N[C@@H](Cc2ccccc2)C(=O)N[C@@H](CCCNC(=N)N)C(=O)N[C@@H](Cc2ccc(O)cc2)C(=O)O)NC(=O)CNC(=O)[C@H](CC(C)C)NC(=O)CNC(=O)[C@H](CO)NC(=O)[C@H](CCC(N)=O)NC(=O)[C@H](C)NC(=O)CNC1=O` [ANP, reference compound], the “inhibition of HCM hypertrophy” value in series [4] (ANP 10^−8 M alone) is recorded as “significant inhibition”; in series [4] (ANP 10^−10 M alone), “no effect”.

Consider `CN1CCC(C(=O)Nc2nc3c(F)cc(F)cc3s2)C1` (centres unmarked) [Compound 30], for which, in series [1], the Emax is 84% and the EC50 came out at 1790 nM.

With `O=C(Nc1nc2c(F)cc(F)cc2s1)C1CCN(C(=O)Cc2ccccc2)C1` (centres unmarked) [Compound 27], in series [1], the Emax was 66% and the EC50 is 2690 nM.

As to `CC(C)(C)C(=O)N1CCC(C(=O)Nc2nc3c(Cl)ccc(Cl)c3s2)CC1` [Compound 5], the EC50 in series [1] is more than 66000 nM.

As to `CC(=O)N1CCC(C(=O)Nc2nc3c(F)cc(F)cc3s2)C1` (centres unmarked) [Compound 24], in series [1], the Emax is 84% and the EC50 amounted to 560 nM.

Take `O=C(Nc1nc2c(F)cc(F)cc2s1)C1CCNC1` (centres unmarked) [Compound 31]: in series [1], the Emax was found to be 84% and the EC50 came out at 1570 nM.

Consider `O=C(Nc1nc2c(F)cc(F)cc2s1)C1CCCN(C(=O)C2CC2)C1` (centres unmarked) [Compound 9], for which, in series [1], the Emax came out at 82% and the EC50 turned out to be 1970 nM.

For the compound `CS(=O)(=O)N1CCCC(C(=O)Nc2nc3c(F)cc(F)cc3s2)C1` (centres unmarked) [Compound 15], in series [1], the Emax was determined as 77% and the EC50 is 1750 nM.

On to `CC(C)(C)C(=O)N1CCC(C(=O)Nc2nc3c(F)cc(F)cc3s2)C1` (centres unmarked) [Compound 21], for which, in series [1], the Emax stood at 84% and the EC50 was determined as 2090 nM.

Regarding `O=C(Nc1nc2c(F)cc(F)cc2s1)C1CCN(C(=O)C2CC2)C1` (centres unmarked) [Compound 22], in series [1], the Emax came to 82% and the EC50 is 6250 nM.

Take `CN(C)CCN1CCC(C(=O)Nc2nc3c(F)cc(F)cc3s2)C1` (centres unmarked) [Compound 32]: in series [1], the Emax was 81% and the EC50 worked out at 1630 nM.

As to `O=C(Nc1nc2c(F)cc(F)cc2s1)C1CCN(C(=O)C2CCC2)CC1` [Compound 2], in series [1], the Emax amounted to 79% and the EC50 was determined as 1720 nM.

Consider `CC(C)(C)OC(=O)N1CCCC(C(=O)Nc2nc3c(F)cc(F)cc3s2)C1` (centres unmarked) [Compound 7], for which, in series [1], the Emax amounted to 64% and the EC50 is 8260 nM.

With `CC(=O)N1CCC(C(=O)Nc2nc3c(F)cc(F)cc3s2)CC1` [Compound 3], in series [1], the Emax is 74% and the EC50 was 1150 nM.

With `CC(C)N1CCC(C(=O)Nc2nc3c(F)cc(F)cc3s2)CC1` [Compound 4], in series [1], the Emax came to 80% and the EC50 was determined as 840 nM.

`CC(C)(C)OC(=O)N1CCC(C(=O)Nc2nc3c(F)cc(F)cc3s2)C1` (centres unmarked) [Compound 20]: in series [1], the Emax is 74% and the EC50 worked out at 4380 nM.

On to `CC(C)(C)C(=O)N1CCC(C(=O)Nc2nc3c(Cl)cccc3s2)CC1` [Compound 6], for which, in series [1], the Emax worked out at 51% and the EC50 turned out to be 2000 nM.

Regarding `O=C(Nc1nc2c(F)cc(F)cc2s1)C1CCCN(C(=O)C2CCC2)C1` (centres unmarked) [Compound 10], in series [1], the Emax was determined as 77% and the EC50 came out at 1810 nM.

The term EC50 denotes the concentration at which the effect is half-maximal.
